In PMC11945486, “TAS1R2/TAS1R3 Single-Nucleotide Polymorphisms Affect Sweet Taste Receptor Activation by Sweeteners: The SWEET Project” (Nutrients, 2025):
No end group written: not given here.

T1: human TAS1R2-R838K/TAS1R3-WT (Homo sapiens, UniProt Q7RTX0+Q8TE23, R838K)
T1 construct: expressed in transfected cells; host or cells: HEK293T-Gα16gust44
T1 sequence (Q8TE23 20-839 R838K): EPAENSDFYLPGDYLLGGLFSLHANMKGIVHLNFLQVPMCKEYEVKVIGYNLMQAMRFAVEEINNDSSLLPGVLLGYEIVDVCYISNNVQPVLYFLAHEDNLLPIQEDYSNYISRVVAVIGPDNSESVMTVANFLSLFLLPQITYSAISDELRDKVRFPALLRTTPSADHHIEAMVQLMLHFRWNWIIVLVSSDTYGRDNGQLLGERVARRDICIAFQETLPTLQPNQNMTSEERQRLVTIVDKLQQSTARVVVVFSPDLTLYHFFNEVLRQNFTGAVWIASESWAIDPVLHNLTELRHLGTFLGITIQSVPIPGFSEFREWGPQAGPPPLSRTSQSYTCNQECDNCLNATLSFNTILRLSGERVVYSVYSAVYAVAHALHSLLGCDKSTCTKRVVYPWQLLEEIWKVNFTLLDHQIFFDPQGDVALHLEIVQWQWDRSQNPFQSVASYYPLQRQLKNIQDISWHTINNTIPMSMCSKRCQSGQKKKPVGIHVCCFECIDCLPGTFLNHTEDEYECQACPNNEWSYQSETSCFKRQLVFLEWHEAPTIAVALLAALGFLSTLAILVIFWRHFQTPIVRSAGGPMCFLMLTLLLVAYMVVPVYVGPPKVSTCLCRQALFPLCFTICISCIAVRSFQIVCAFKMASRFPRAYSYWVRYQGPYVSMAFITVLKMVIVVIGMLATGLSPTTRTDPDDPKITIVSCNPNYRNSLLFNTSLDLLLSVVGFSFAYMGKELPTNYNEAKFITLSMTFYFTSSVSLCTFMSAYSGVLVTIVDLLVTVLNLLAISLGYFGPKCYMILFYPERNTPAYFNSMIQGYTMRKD
T1 sequence (Q7RTX0 21-852): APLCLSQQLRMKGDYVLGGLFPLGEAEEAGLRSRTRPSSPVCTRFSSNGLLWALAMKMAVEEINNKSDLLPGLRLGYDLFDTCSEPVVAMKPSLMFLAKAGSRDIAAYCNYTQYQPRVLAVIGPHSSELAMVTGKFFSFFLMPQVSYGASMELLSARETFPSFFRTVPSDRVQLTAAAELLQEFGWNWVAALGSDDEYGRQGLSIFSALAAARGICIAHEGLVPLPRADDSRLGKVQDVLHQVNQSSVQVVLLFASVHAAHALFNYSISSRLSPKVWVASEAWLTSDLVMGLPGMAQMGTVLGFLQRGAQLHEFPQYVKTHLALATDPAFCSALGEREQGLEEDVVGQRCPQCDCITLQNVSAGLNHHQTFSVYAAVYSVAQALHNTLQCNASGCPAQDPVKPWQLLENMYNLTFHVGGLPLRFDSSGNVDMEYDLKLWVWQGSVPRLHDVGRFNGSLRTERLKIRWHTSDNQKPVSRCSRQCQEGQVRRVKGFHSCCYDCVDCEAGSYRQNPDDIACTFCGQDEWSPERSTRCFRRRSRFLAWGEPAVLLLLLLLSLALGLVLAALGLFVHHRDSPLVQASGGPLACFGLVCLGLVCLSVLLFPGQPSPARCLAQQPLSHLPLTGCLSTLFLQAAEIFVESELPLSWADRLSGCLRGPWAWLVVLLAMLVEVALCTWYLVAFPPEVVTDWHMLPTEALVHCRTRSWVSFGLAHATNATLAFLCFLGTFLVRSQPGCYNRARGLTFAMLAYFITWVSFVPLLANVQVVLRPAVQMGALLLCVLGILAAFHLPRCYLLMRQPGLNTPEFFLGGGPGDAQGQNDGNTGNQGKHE


Molecular target: T1, human TAS1R2-R838K/TAS1R3-WT
Assay: Calcium mobilisation assay, TAS1R2 variant R838K with TAS1R3-WT
Assay type: cell-based
Conditions: for Max ΔF/F0: maximal signal amplitude
Excerpt: The coding sequences for TAS1R2 and TAS1R3 were commercially synthesised, and the human codon was optimised for expression in human cells. The coding sequences of human TAS1R2 and TAS1R3 were subcloned and inserted into the mammalian expression vectors pcDNA6/myc-HisA and pcDNA4/myc-HisA (Invitrogen; Thermo Fisher Scientific; Illkirch, France) between the EcoRI and NotI restriction sites, generating the plasmids pcDNA6-TAS1R2 and pcDNA4-TAS1R3, respectively. To increase protein expression in mammalian cells, an upstream start codon was used, which was a sequence called MAX, corresponding to the QBI SP163 element also described in pcDNA4-HisMax (Invitrogen; Thermo Fisher Scientific; Illkirch, France). To measure the expression level of the receptor by immunohistochemistry, we used the FLAG sequence ([…]) in the C-terminal position, which encodes the FLAG tag epitope. SNP variants of TAS1R2 and TAS1R3 were constructed based on […], respectively, using site-directed mutagenesis (Genewiz; Leipzig, Germany).
The HEK293T cells were kindly provided by Jay P. Slack (Givaudan Flavors Corporation; Cincinnati, OH, USA). HEK293T cells stably transfected with Gα16gust44 [43, 67] were seeded in poly-D-lysine-coated clear-bottom black 96-well plates (0.35 × 10^5 cells/well) in high-glucose DMEM supplemented with 2 mM GlutaMAX, 10% dialysed foetal bovine serum with penicillin/streptomycin and G418 (400 μg/mL) at 37 °C and 6.3% CO2 in a humidified atmosphere as previously reported. […] As a negative control, HEK293T cells were mock-transfected with the empty expression vector. After a further 24 h of incubation, the HEK293T cells were washed with C1 buffer (130 mM NaCl, 5 mM KCl, 10 mM HEPES pH 7.4 and 2 mM CaCl2). The 96-well plates containing the cells were then stimulated with sweet-tasting compounds. […] Different concentration ranges were tested depending on the sweet compound injected. The Ca^2+ changes were expressed as fractional changes in fluorescent light intensity: ΔF/F = (F − F0)/F0, where F was the fluorescent light intensity at each point, and F0 was the value of emitted fluorescent light prior to stimulus application. To calculate dose–response relationships, the changes in fluorescence upon stimulus application were averaged, mock-subtracted and baseline-corrected. The dose–response data obtained were adjusted using a 4-parameter logistic equation. The half-maximal effective concentrations (EC50 values) and maximal signal amplitudes were calculated using SigmaPlot software (version 15.0) (Systat Software; San Jose, CA, USA).
For in vitro calcium mobilisation assay performed on hTAS1R2-SNPs, hTAS1R3-SNPs and mTAS1R3-I60T, 6 to 7 concentrations were tested for each sweet compound, plus buffer alone. All concentration–receptor combinations were measured in duplicate, and each experiment was repeated at least 4 times (8 wells/concentration). Results were expressed for each concentration as ΔF/F mean ± SEM and represented as dose–response curves.

Molecule | EC50 | R1 = Variant EC50/WT EC50 | Max ΔF/F0
CC1=CC(=O)NS(=O)(=O)O1 [Acesulfame K, acesulfame K] | 484 ± 47 µM | 0.7 | 0.42 ± 0.02
O=S(=O)(O)NC1CCCCC1 [Cyclamate, cyclamate] | 1730 ± 24 µM |  | 
C[C@H](CC[C@@H](O[C@@H]1O[C@H](CO[C@@H]2O[C@H](CO)[C@@H](O)[C@H](O)[C@H]2O)[C@@H](O)[C@H](O)[C@H]1O[C@@H]1O[C@H](CO)[C@@H](O)[C@H](O)[C@H]1O)C(C)(C)O)[C@H]1CC[C@@]2(C)[C@@H]3CC=C4[C@@H](CC[C@H](O[C@@H]5O[C@H](CO[C@@H]6O[C@H](CO)[C@@H](O)[C@H](O)[C@H]6O)[C@@H](O)[C@H](O)[C@H]5O)C4(C)C)[C@]3(C)[C@H](O)C[C@]12C [Mogroside V, mogroside V] | 17.1 ± 0.9 µM | 1.0 | 1.31 ± 0.02
COc1ccc(CCC(=O)c2c(O)cc(O[C@@H]3O[C@H](CO)[C@@H](O)[C@H](O)[C@H]3O[C@@H]3O[C@@H](C)[C@H](O)[C@@H](O)[C@H]3O)cc2O)cc1O [NHDC, neohesperidin dihydrochalcone] | 75.8 ± 1.2 µM | 1.0 | 0.79 ± 0.05
COC(=O)[C@H](Cc1ccccc1)NC(=O)[C@H](CC(=O)O)NCCC(C)(C)C [Neotame] | 0.66 ± 0.05 µM | 0.8 | 0.75 ± 0.02
C=C(C)[C@@H]1CC=C(/C=N/O)CC1 [Perillartine, perillartine] | 19.1 ± 1.2 µM | 1.1 | 1.45 ± 0.03

Results, then the molecule that gave them:

EC50 | R1 = Variant EC50/WT EC50 | Max ΔF/F0 | Molecule
18.2 ± 1.1 µM | 1.1 | 1.20 ± 0.01 | C=C1C[C@@]23CC[C@H]4[C@@](C)(CCC[C@@]4(C)C(=O)O[C@@H]4O[C@H](CO)[C@@H](O)[C@H](O[C@@H]5O[C@H](CO)[C@@H](O)[C@H](O)[C@H]5O)[C@H]4O[C@@H]4O[C@H](CO)[C@@H](O)[C@H](O)[C@H]4O)[C@@H]2CC[C@]1(O[C@@H]1O[C@H](CO)[C@@H](O)[C@H](O[C@@H]2O[C@H](CO)[C@@H](O)[C@H](O)[C@H]2O)[C@H]1O[C@@H]1O[C@H](CO)[C@@H](O)[C@H](O)[C@H]1O)C3 [Rebaudioside M, rebaudioside M]
82 ± 6 µM | 0.9 | 0.75 ± 0.02 | OC[C@H]1O[C@H](O[C@]2(CCl)O[C@H](CCl)[C@@H](O)[C@@H]2O)[C@H](O)[C@@H](O)[C@H]1Cl [Sucralose]
 | 1.2 | 1.2 ± 0.03 | brazzein (QDKCKKVYENYPVSKCQLANQCNYDCKLDKHARSGECFYDEKRNLQCICDYCEY; ends and bridges not checked; cysteine pairing not given here; UniProt P56552 1-54, looked up) [sweet-tasting protein obtained by recombinant production using the yeast Pichia pastoris]
 | 1.4 | 1.3 ± 0.02 | thaumatin
10.4 ± 0.2 µM |  |  | thaumatin (protein, Eight disulfides, sweet-tasting plant protein, E957) ATFEIVNRCSYTVWAAASKGDAALDAGGRQLNSGESWTINVEPGTKGGKIWARTDCYFDDSGSGICKTGDCGGLLRCKRFGRPPTTLAEFSLNQYGKDYIDISNIKGFNVPMDFSPTTRGCRGVRCAADIVGQCPAKLKAPGGGCNDACTVFQTSEYCCTTGKCGPTEYSRFFKRLCPDAFSYVLDKPTTVTCPGSSNYRVTFCPTA
